Assay results published in patent US20230203485A1, “METHODS FOR MODULATING MHC-I EXPRESSION AND IMMUNOTHERAPY USES THEREOF” (Dana-Farber Cancer Institute, Inc., priority 2020, published 2023).

Tests used:
Type in all cases: cell-based, human
[1] = test system: HLA I surface expression on MCC cell lines; assay: Flow cytometry for HLA-I surface expression (anti-HLA-ABC, W6/32) in MCC lines at baseline and after interferon or MEK inhibitor treatment
Procedure: The overlaid black line plot indicates the percentage of tumor cells that stained positive for HLA-I by IHC of the corresponding original tumor (right y-axis).
Representative histogram plots show cells stained with anti-HLA class I or isotype antibodies. The experiment was performed in the MCPyV− line MCC-290 (left) and the MCPyV+ line MCC-301 (right).
Cells were dissociated with Versene and incubated with 5 μL Human TruStain FcX (Fc receptor blocking solution; Biolegend, Dedham, Mass.) per million cells in […] at room temperature for 10 min. Fluorochrome-conjugated antibodies or respective isotype controls were immediately added and incubated for another 30 min at 4° C. Cells were then washed once with PBS and resuspended in PBS containing 4% paraformaldehyde and analyzed on LSR Fortessa cytometers. Additional steps were described for individual experiments as below.

[2] = test system: HLA class I bound peptides of MCC cell lines; assay: HLA class I immunoprecipitation and LC-MS/MS immunopeptidome of MCC tumors and cell lines +/- IFNγ
From the text: CL=cell line (left). Correlation heatmap of peptide sequences between MCC lines at baseline and after IFN-γ treatment in motif space (right).
HLA molecules are immunoprecipitated from tumor and cell line material, peptides are eluted from HLA complex and analyzed by LC-MS/MS. After database searching, peptides are assigned to their most likely allele by prediction in HLAthena.
Up to 40 million MCC cells were immunoprecipitated. Briefly, MCC cells were harvested and lysed in ice-cold lysis buffer containing […] (pH 8.0), 1 mM EDTA (pH 8.0), 0.1M sodium chloride, Triton X-100, 0.06M octyl 3-d-glucopyranoside, 100 U/mL DNAse I, 1 mM phenylmethanesulfonyl fluoride (all from Sigma Aldrich), protease inhibitor cocktail (Roche Diagnostics, Indianapolis, Ind.). Cell lysates were centrifuged at 12,700 rpm at 4° C. for 22 min. […] Peptides of up to three IPs were combined, acid eluted, and analyzed using LC/MS/MS as described previously (Abelin, Keskin Immunity). […] Peptides were eluted in a 6-30% gradient (EasyLC 1000 or 1200, ThermoFisher Scientific) and analyzed on a QExactive Plus or Fusion Lumos (ThermoFisher Scientific). […]
For detection of the large T antigen peptide, 3 Ips of a 367 Cell line treated with IFNγ were pooled, acid eluted, fractionated using stage tip basic reverse phase separation and fractions were analyzed on a Fusion Lumos equipped with a FAIMSpro interface (Klaeger et al., in preparation).
Mass spectra were interpreted using Spectrum Mill software package v7.1 pre-Release (Agilent Technologies, Santa Clara, Calif.). […] MS/MS spectra were searched against a protein sequence database that contained 98,298 entries, including all UCSC Genome Browser genes with hg19 annotation of the genome and its protein coding transcripts (63,691 entries), common human virus sequences (30,181 entries), recurrently mutated proteins observed in tumors from 26 tissues (4,167 entries), 264 common laboratory contaminants as well as protein sequences containing somatic mutations detected in MCC cell lines. […]

surface HLA-I = assay: Interferon treatment of MCC lines, surface HLA-I by flow cytometry
Procedure: (§1) Cells were dissociated with Versene and incubated with 5 μL Human TruStain FcX (Fc Receptor Blocking Solution; Biolegend #422302) per million cells in 100 μL at room temperature for 10 min. Fluorophore-conjugated antibodies or respective isotype controls were added and incubated for another 30 min at 4° C. Cells were then washed once with PBS and resuspended in PBS or 4% paraformaldehyde and analyzed on an LSR Fortessa cytometer. For HLA-I and HLA-II detection, the following antibodies were used: HLA-ABC (W6/32 clone) conjugated to PE (BioLegend #311406), APC (BioLegend #311410), or AF647 (Santa Cruz Biotechnology #sc32235 AF647), and HLA-DR-FITC (BioLegend #307604).

HLA-DR = assay: IFN-γ treatment, HLA-DR by flow cytometry; conditions: MCC-301 cell line
Procedure: as §1

Substance	HLA I surface expression, median fold increase by MFI ([1]; IFN-y exposure, the 8 inducible of 11 MCC lines, pan-class I anti-HLA-ABC antibody, median)	HLA I surface expression, range of fold increase by MFI ([1]; IFN-y exposure, the 8 inducible of 11 MCC lines, range)	HLA I surface expression response ([1]; three lines: MCC-336, -350, -358)	number of detected peptides presented on HLA Class I ([2]; tumor derived cell lines, FIG. 3B)	fold increase in MFI of HLA-I after IFN-γ exposure (surface HLA-I; 8 lines)	median fold increase in MFI of HLA-I after IFN-γ exposure (surface HLA-I; 8 lines)	range of fold increase in MFI of HLA-I after IFN-γ exposure (surface HLA-I; 8 lines)	fold increase in MFI of HLA-I after IFN-γ exposure (surface HLA-I; three lines (MCC-336, -350, -358))	HLA-DR expression (HLA-DR)	abundance of class I bound peptides, median fold increase ([2]; across 4 cell lines, after IFN-γ stimulation vs baseline)	frequencies of peptides mapping to each HLA allele ([2]; cell lines exposed or not to IFN-γ)
IFN-y: type II interferon, recombinant human, used to treat MCC cells	5.7 fold	2.5-12.4 fold	not responsive	increased	–	–	–	–	–	–	–
IFN-γ: interferon gamma used to stimulate MCC cell lines	–	–	–	–	≥ 2.5 fold	5.7 fold	2.5-12.4 fold	≤ 1.15 fold	upregulated	25 fold	increase in HLA-B-presented peptides
